Source: PubChem BioAssay (NCI)
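Values below derive from 48-hour exposures of cells grown in 96-well plates, with endpoints linearly interpolated between the two concentrations bracketing the appropriate inhibition level. The concentration for 50% growth inhibition is given as GI50. The concentration for full growth arrest is given as TGI.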

What was measured:
Test in all cases: growth of human tumour cells (NCI), 48 h
RXF 393 renal = tested on: RXF 393 renal
OVCAR-8 ovarian = tested on: OVCAR-8 ovarian
PC-3 prostate = tested on: PC-3 prostate
OVCAR-5 ovarian = tested on: OVCAR-5 ovarian
SK-MEL-2 melanoma = tested on: SK-MEL-2 melanoma
A498 renal = tested on: A498 renal
IGROV1 ovarian = tested on: IGROV1 ovarian
CAKI-1 renal = tested on: CAKI-1 renal
HOP-62 NSCLC = tested on: HOP-62 NSCLC
SW-620 colon = tested on: SW-620 colon
K-562 leukemia = tested on: K-562 leukemia
SK-MEL-28 melanoma = tested on: SK-MEL-28 melanoma
U251 CNS = tested on: U251 CNS
SK-MEL-5 melanoma = tested on: SK-MEL-5 melanoma
RPMI-8226 leukemia = tested on: RPMI-8226 leukemia
OVCAR-4 ovarian = tested on: OVCAR-4 ovarian
SF-539 CNS = tested on: SF-539 CNS
HCC-2998 colon = tested on: HCC-2998 colon
MOLT-4 leukemia = tested on: MOLT-4 leukemia
SR leukemia = tested on: SR leukemia
UO-31 renal = tested on: UO-31 renal
COLO 205 colon = tested on: COLO 205 colon
TK-10 renal = tested on: TK-10 renal
HCT-116 colon = tested on: HCT-116 colon
DU-145 prostate = tested on: DU-145 prostate
NCI-H226 lung = tested on: NCI-H226 lung
HS 578T breast = tested on: HS 578T breast
M14 melanoma = tested on: M14 melanoma
SK-OV-3 ovarian = tested on: SK-OV-3 ovarian
MCF7 breast = tested on: MCF7 breast
UACC-62 melanoma = tested on: UACC-62 melanoma
KM12 colon = tested on: KM12 colon
MALME-3M melanoma = tested on: MALME-3M melanoma
SF-268 CNS = tested on: SF-268 CNS
SNB-75 CNS = tested on: SNB-75 CNS
T-47D breast = tested on: T-47D breast
MDA-MB-231 breast = tested on: MDA-MB-231 breast
MDA-MB-435 = tested on: MDA-MB-435
NCI/ADR-RES ovarian = tested on: NCI/ADR-RES ovarian
HOP-92 NSCLC = tested on: HOP-92 NSCLC
BT-549 breast = tested on: BT-549 breast
HCT-15 colon = tested on: HCT-15 colon
NCI-H23 lung = tested on: NCI-H23 lung
ACHN renal = tested on: ACHN renal
HL-60(TB) leukemia = tested on: HL-60(TB) leukemia
LOX IMVI melanoma = tested on: LOX IMVI melanoma
SNB-19 CNS = tested on: SNB-19 CNS
786-0 renal = tested on: 786-0 renal
CCRF-CEM leukemia = tested on: CCRF-CEM leukemia
SN12C renal = tested on: SN12C renal
HT29 colon = tested on: HT29 colon
SF-295 CNS = tested on: SF-295 CNS
EKVX NSCLC = tested on: EKVX NSCLC
A549 NSCLC = tested on: A549 NSCLC
UACC-257 melanoma = tested on: UACC-257 melanoma
NCI-H460 lung = tested on: NCI-H460 lung

SMILES: Oc1ccccc1-c1nnc(SCc2ccc(O)c3ncccc23)n1-c1ccccc1
- GI50 (RXF 393 renal): 666 nM
- TGI (RXF 393 renal): 80200 nM
- GI50 (OVCAR-8 ovarian): 375 nM
- TGI (OVCAR-8 ovarian): > 41500 nM
- GI50 (PC-3 prostate): 488 nM
- TGI (PC-3 prostate): > 100000 nM
- GI50 (OVCAR-5 ovarian): 2110 nM
- TGI (OVCAR-5 ovarian): > 100000 nM
- GI50 (SK-MEL-2 melanoma): 361 nM
- GI50 (A498 renal): 1850 nM
- TGI (A498 renal): 7440 nM
- GI50 (IGROV1 ovarian): 406 nM
- TGI (IGROV1 ovarian): > 100000 nM
- GI50 (CAKI-1 renal): 382 nM
- TGI (CAKI-1 renal): 24600 nM
- GI50 (HOP-62 NSCLC): 377 nM
- TGI (HOP-62 NSCLC): > 21000 nM
- GI50 (SW-620 colon): 429 nM
- TGI (SW-620 colon): > 100000 nM
- GI50 (K-562 leukemia): 270 nM
- TGI (K-562 leukemia): > 100000 nM
- GI50 (SK-MEL-28 melanoma): 543 nM
- TGI (SK-MEL-28 melanoma): > 100000 nM
- GI50 (U251 CNS): 363 nM
- TGI (U251 CNS): > 100000 nM
- GI50 (SK-MEL-5 melanoma): 349 nM
- TGI (SK-MEL-5 melanoma): 1530 nM
- GI50 (RPMI-8226 leukemia): 399 nM
- TGI (RPMI-8226 leukemia): > 100000 nM
- GI50 (OVCAR-4 ovarian): 641 nM
- TGI (OVCAR-4 ovarian): > 100000 nM
- GI50 (SF-539 CNS): 438 nM
- TGI (SF-539 CNS): 13700 nM
- GI50 (HCC-2998 colon): 552 nM
- TGI (HCC-2998 colon): > 95200 nM
- GI50 (MOLT-4 leukemia): 434 nM
- TGI (MOLT-4 leukemia): > 100000 nM
- GI50 (SR leukemia): 345 nM
- TGI (SR leukemia): > 100000 nM
- GI50 (UO-31 renal): 291 nM
- TGI (UO-31 renal): 2480 nM
- GI50 (COLO 205 colon): 4010 nM
- TGI (COLO 205 colon): 32000 nM
- GI50 (TK-10 renal): 417 nM
- TGI (TK-10 renal): > 100000 nM
- GI50 (HCT-116 colon): 325 nM
- TGI (HCT-116 colon): > 100000 nM
- GI50 (DU-145 prostate): 498 nM
- TGI (DU-145 prostate): > 90800 nM
- GI50 (NCI-H226 lung): 1770 nM
- TGI (NCI-H226 lung): > 100000 nM
- GI50 (HS 578T breast): 357 nM
- TGI (HS 578T breast): > 100000 nM
- GI50 (M14 melanoma): 418 nM
- GI50 (SK-OV-3 ovarian): 376 nM
- TGI (SK-OV-3 ovarian): > 19700 nM
- GI50 (MCF7 breast): 310 nM
- TGI (MCF7 breast): > 100000 nM
- GI50 (UACC-62 melanoma): 426 nM
- TGI (UACC-62 melanoma): 2540 nM
- GI50 (KM12 colon): 485 nM
- TGI (KM12 colon): > 75300 nM
- GI50 (MALME-3M melanoma): 806 nM
- TGI (MALME-3M melanoma): 7890 nM
- GI50 (SF-268 CNS): 475 nM
- TGI (SF-268 CNS): > 100000 nM
- GI50 (SNB-75 CNS): 416 nM
- TGI (SNB-75 CNS): > 58800 nM
- GI50 (T-47D breast): 344 nM
- TGI (T-47D breast): > 100000 nM
- GI50 (MDA-MB-231 breast): 432 nM
- TGI (MDA-MB-231 breast): 24200 nM
- GI50 (MDA-MB-435): 402 nM
- TGI (MDA-MB-435): > 100000 nM
- GI50 (NCI/ADR-RES ovarian): 279 nM
- TGI (NCI/ADR-RES ovarian): > 100000 nM
- GI50 (HOP-92 NSCLC): 106 nM
- TGI (HOP-92 NSCLC): 654 nM
- GI50 (BT-549 breast): 494 nM
- TGI (BT-549 breast): > 100000 nM
- GI50 (HCT-15 colon): 323 nM
- TGI (HCT-15 colon): > 100000 nM
- GI50 (NCI-H23 lung): 412 nM
- TGI (NCI-H23 lung): > 100000 nM
- GI50 (ACHN renal): 331 nM
- TGI (ACHN renal): 26300 nM
- GI50 (HL-60(TB) leukemia): 326 nM
- TGI (HL-60(TB) leukemia): 2380 nM
- GI50 (LOX IMVI melanoma): 350 nM
- TGI (LOX IMVI melanoma): > 35300 nM
- GI50 (SNB-19 CNS): 378 nM
- TGI (SNB-19 CNS): > 100000 nM
- GI50 (786-0 renal): 513 nM
- TGI (786-0 renal): 12000 nM
- GI50 (CCRF-CEM leukemia): 379 nM
- TGI (CCRF-CEM leukemia): > 100000 nM
- GI50 (SN12C renal): 347 nM
- TGI (SN12C renal): 52700 nM
- GI50 (HT29 colon): 3620 nM
- TGI (HT29 colon): > 51400 nM
- GI50 (SF-295 CNS): 347 nM
- TGI (SF-295 CNS): > 53800 nM
- GI50 (EKVX NSCLC): 437 nM
- TGI (EKVX NSCLC): 9810 nM
- GI50 (A549 NSCLC): 441 nM
- TGI (A549 NSCLC): > 100000 nM
- GI50 (UACC-257 melanoma): 514 nM
- TGI (UACC-257 melanoma): > 26800 nM
- GI50 (NCI-H460 lung): 372 nM
- TGI (NCI-H460 lung): > 100000 nM
